Source: patent US8937068B2, “Pyridopyrazine derivatives and their use” (Zentaris GmbH, priority 2005, dated 2015)

Tests used:
[1] = system: Jnk1 + Jnk2; assay: Cell-free kinase assay (ALPHA technology), Jnk1 + Jnk2; assay type: biochemical, human; details: 10 μM ATP
Experimental: (§1) The inhibitory effect of the compounds according to the invention was tested on various serine/threonine, tyrosine and lipid kinases in enzymatic assays. Recombinant human kinases such as, for example, Erk2, PI3Kalpha, -beta, -gamma, -delta, p38alpha, p38gamma, Jnk1, Jnk2 and others were used in this case, partly as full-length kinases, partly as shortened fragments, but at least consisting of the functional kinase domains. The commercial kinase proteins (Proqinase, Upstate) were used as recombinant fusion proteins with GST (glutathion-S-transferase) or His-Tag. Depending on the type of substrate, the various kinase reactions were quantified by means of suitable ALPHA™ beads (Perkin-Elmer).
(§2) The substance testing is described in detail hereinafter for the Erk assay.
(§3) a) MAPK-ALPHAs (e.g. Erk2): the test substance, 0.625 ng Erk2 (#14-173, Upstate), 10 μM ATP and 15 nM biotinylated MBP (myelin basic protein) substrate were incubated on a 384-well Optiplate (Perkin-Elmer) in a volume of 15 μl for 1 h in 25 mM Tris, 10 mM MgCl2, 0.1% Tween-20, 100 μM NaVO4, 2 mM DTT at pH 7.5. The kinase reaction was then stopped by adding 10 μl of the ALPHA bead mixes (10 μg/ml, #6760617/Perkin-Elmer) pre-incubated with anti-phospho MBP antibody (320 pM, #05-429/Upstate) in 25 mM Tris, 200 mM NaCl, 110 nM EDTA and 0.3% BSA and left to stand overnight. b) PI3K-ALPHAs (e.g. PI3Kalpha): the test substance, 1 ng PI3Kalpha (#14-602, Upstate), 100 μM ATP and 20 μM PIP2 substrate (#P4508, Echelon) were incubated on a 384-well Optiplate (Perkin-Elmer) for 1 h in 50 mM Hepes, 50 mM NaCl, 5 mM MgCl2, 0.05% Chaps, 5 mM DTT at pH 7.4. The kinase reaction was then stopped by adding ALPHA bead mixes (10 μg/ml, #6760603/Perkin-Elmer) pre-incubated with 1 nM GST:Grp1 fusion protein (Upstate) and 15 nM biotinylated PIP3 (#C-39B6/Echelon) in 50 mM Hepes, 50 mM NaCl, 50 mM EDTA and 0.1% BSA and left to stand overnight.
(§4) The fluorescence was detected the following morning in a Fusion™^aα-system (Perkin-Elmer).
(§5) The %-inhibition values per substance concentration were calculated by means of the following formula from the raw data determined in the Fusion™ ? :
(§6) Eight determinations were made for each control and two for the substance samples. The 0% control either contains no ATP or no substrate, the 100% control (fully active kinase) contains no test substance. The IC50 values were determined using GraphPadPrism.

[2] = target: Erk2 (Homo sapiens, UniProt P28482); assay: Cell-free kinase assay (ALPHA technology), Erk2; assay type: biochemical; details: 10 μM ATP
Erk2, sequence (P28482 2-360 limits assumed): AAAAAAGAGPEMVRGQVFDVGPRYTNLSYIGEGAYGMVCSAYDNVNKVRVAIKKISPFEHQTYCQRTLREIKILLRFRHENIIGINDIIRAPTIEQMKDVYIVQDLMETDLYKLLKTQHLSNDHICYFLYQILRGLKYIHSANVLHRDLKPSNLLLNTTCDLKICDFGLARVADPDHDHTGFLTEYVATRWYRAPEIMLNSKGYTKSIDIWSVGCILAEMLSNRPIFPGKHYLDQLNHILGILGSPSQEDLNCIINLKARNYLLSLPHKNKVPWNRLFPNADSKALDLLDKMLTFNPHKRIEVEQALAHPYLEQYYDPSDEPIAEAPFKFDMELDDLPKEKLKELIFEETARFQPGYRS
Experimental: The inhibitory effect of the compounds according to the invention was tested on various serine/threonine, tyrosine and lipid kinases in enzymatic assays. […] The commercial kinase proteins (Proqinase, Upstate) were used as recombinant fusion proteins with GST (glutathion-S-transferase) or His-Tag. Depending on the type of substrate, the various kinase reactions were quantified by means of suitable ALPHA™ beads (Perkin-Elmer). The substance testing is described in detail hereinafter for the Erk assay. […] a) MAPK-ALPHAs (e.g. […] The kinase reaction was then stopped by adding ALPHA bead mixes (10 μg/ml, #6760603/Perkin-Elmer) pre-incubated with 1 nM GST:Grp1 fusion protein (Upstate) and 15 nM biotinylated PIP3 (#C-39B6/Echelon) in 50 mM Hepes, 50 mM NaCl, 50 mM EDTA and 0.1% BSA and left to stand overnight. The fluorescence was detected the following morning in a Fusion™^aα-system (Perkin-Elmer). […] Eight determinations were made for each control and two for the substance samples. […] The IC50 values were determined using GraphPadPrism.

[3] = target: PI3Kalpha (Homo sapiens (Human), UniProt P42336); assay: Cell-free kinase assay (ALPHA technology), PI3Kalpha; assay type: biochemical; details: 100 μM ATP
PI3Kalpha, sequence (P42336 whole entry): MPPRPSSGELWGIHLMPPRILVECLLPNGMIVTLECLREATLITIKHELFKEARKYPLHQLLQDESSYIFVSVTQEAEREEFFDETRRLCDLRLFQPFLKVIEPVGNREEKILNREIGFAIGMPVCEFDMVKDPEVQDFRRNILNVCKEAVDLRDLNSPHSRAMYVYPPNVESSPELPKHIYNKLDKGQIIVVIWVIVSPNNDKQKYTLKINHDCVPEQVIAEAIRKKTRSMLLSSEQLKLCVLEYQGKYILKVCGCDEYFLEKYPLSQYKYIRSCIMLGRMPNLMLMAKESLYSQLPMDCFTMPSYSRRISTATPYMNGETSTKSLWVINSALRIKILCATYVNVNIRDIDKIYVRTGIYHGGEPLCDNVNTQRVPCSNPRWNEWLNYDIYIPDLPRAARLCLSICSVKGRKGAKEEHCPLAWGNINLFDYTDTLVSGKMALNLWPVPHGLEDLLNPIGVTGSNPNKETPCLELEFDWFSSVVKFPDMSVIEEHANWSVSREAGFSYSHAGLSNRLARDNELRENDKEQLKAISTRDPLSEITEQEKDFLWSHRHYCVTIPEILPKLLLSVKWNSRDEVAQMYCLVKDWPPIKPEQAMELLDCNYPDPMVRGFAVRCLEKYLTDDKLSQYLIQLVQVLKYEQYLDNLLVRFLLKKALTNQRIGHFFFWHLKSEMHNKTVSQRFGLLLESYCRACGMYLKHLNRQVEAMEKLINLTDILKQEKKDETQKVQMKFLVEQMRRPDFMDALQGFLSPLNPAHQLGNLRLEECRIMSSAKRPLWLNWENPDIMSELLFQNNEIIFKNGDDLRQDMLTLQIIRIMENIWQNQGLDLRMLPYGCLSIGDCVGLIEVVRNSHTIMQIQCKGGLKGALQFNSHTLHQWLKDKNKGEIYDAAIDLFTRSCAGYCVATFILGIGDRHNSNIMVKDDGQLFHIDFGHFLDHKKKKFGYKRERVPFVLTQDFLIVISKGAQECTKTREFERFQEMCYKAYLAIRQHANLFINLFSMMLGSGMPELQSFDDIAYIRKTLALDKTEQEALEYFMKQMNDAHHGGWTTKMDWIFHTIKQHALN
PI3Kalpha, sequence (P27986 whole entry partner): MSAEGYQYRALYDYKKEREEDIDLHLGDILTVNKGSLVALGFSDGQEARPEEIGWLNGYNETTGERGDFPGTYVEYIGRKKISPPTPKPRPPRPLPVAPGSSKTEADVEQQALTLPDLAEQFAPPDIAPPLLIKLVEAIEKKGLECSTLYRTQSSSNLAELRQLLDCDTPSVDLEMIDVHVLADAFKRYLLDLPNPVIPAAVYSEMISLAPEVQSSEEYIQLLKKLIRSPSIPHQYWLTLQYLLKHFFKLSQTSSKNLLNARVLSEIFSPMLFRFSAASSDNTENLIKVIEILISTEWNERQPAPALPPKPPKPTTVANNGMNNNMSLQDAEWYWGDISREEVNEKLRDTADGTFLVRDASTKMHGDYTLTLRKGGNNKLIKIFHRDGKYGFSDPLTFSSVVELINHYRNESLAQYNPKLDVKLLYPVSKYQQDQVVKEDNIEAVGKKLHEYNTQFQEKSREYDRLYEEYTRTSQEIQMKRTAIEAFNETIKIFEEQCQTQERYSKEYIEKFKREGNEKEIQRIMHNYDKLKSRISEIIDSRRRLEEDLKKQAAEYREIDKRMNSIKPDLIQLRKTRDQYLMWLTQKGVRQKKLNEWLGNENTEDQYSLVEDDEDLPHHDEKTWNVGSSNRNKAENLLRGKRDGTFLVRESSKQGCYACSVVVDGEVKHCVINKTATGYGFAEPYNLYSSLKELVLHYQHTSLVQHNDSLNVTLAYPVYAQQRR
Experimental: as §1, §2, §3, §4, §5, §6

[4] = target: p38alpha (Homo sapiens (Human), UniProt Q16539); assay: Cell-free kinase assay (ALPHA technology), p38alpha; assay type: biochemical; details: 10 μM ATP
p38alpha, sequence (Q16539 whole entry): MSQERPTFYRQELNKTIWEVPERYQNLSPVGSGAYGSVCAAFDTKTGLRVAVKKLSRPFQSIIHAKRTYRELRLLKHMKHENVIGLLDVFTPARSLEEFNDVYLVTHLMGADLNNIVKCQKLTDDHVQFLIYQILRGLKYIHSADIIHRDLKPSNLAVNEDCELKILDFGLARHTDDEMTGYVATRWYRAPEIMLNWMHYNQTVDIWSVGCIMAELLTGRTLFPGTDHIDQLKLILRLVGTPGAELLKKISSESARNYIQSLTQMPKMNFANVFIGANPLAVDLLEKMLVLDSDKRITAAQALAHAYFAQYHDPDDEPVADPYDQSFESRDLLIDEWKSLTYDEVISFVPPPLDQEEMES
Experimental: as §1, §2, §3, §4, §5, §6

| Compound | melting point | IC50 [1] [µM] | IC50 [2] [µM] | IC50 [3] [µM] | IC50 [4] [µM] |
| --- | --- | --- | --- | --- | --- |
| C=CCNC(=S)Nc1ccc2nc(-c3ccc(O)cc3)c(-c3ccc(O)cc3)nc2n1 [Compound 32, 1-allyl-3-[2,3-bis-(4-hydroxy-phenyl)-pyrido[2,3-b]pyrazin-6-yl]-thiourea] | 270 °C (dec.) |  |  |  |  |
| C=CCNC(=S)Nc1ccc2ncc(-c3ccc(OC)cc3)nc2n1 [Compound 6, 1-allyl-3-[3-(4-methoxy-phenyl)-pyrido[2,3-b]pyrazin-6-yl]-thiourea] | 240 to 241 °C (dec.) |  |  |  |  |
| CNC(=S)Nc1ccc2ncc(-c3ccc([N+](=O)[O-])cc3)nc2n1 [Compound 22, 1-methyl-3-[3-(4-nitro-phenyl)-pyrido[2,3-b]pyrazin-6-yl]-thiourea] | 270 °C |  |  |  |  |
| C=C(C)CNC(=S)Nc1ccc2ncc(-c3ccccc3)nc2n1 [Compound 4, 1-(2-methyl-allyl)-3-(3-phenyl-pyrido[2,3-b]pyrazin-6-yl)-thiourea] | 225 to 226 °C (dec.) |  |  |  |  |
| C=CCNC(=S)Nc1ccc2ncc(-c3ccc([N+](=O)[O-])cc3)nc2n1 [Compound 24, 1-allyl-3-[3-(4-nitro-phenyl)-pyrido[2,3-b]pyrazin-6-yl]-thiourea] | 244 °C (dec.) |  |  |  |  |
| O=C(Nc1ccc2ncc(-c3ccccc3)nc2n1)NC1CC1 [Compound 21, 1-cyclopropyl-3-(3-phenyl-pyrido[2,3-b]pyrazin-6-yl)-urea] | 158 to 160 °C |  |  |  |  |
| CC(C)(C)NC(=S)Nc1ccc2ncc(-c3ccccc3)nc2n1 [Compound 10, 1-tert.butyl-3-(3-phenyl-pyrido[2,3-b]pyrazin-6-yl)-thiourea] | 227 °C (dec.) |  |  |  |  |
| O=[N+]([O-])c1ccc(NC(=S)Nc2ccc3ncc(-c4ccc5ccccc5c4)nc3n2)cc1 [Compound 8, 1-(3-naphth-2-yl-pyrido[2,3-b]pyrazin-6-yl)-3-(4-nitro-phenyl)-thiourea] | 260 to 261 °C (dec.) |  |  |  |  |
| S=C(NCc1ccco1)Nc1ccc2ncc(-c3ccccc3)nc2n1 [Compound 20, 1-furan-2-ylmethyl-3-(3-phenyl-pyrido[2,3-b]pyrazin-6-yl)-thiourea] | 250 °C (dec.) |  |  |  |  |
| C=C(C)CNC(=S)Nc1ccc2ncc(-c3ccc(OC)cc3)nc2n1 [Compound 3, 1-[3-(4-methoxy-phenyl)-pyrido[2,3-b]pyrazin-6-yl]-3-(2-methyl-allyl)-thiourea] | 251 to 252 °C (dec.) |  |  |  |  |
| S=C(Nc1ccc2ncc(-c3ccccc3)nc2n1)NC1CC1 [Compound 11, 1-cyclopropyl-3-(3-phenyl-pyrido[2,3-b]pyrazin-6-yl)-thiourea] | 233 to 234 °C |  |  |  |  |
| CC(C)NC(=S)Nc1ccc2ncc(-c3ccccc3)nc2n1 [Compound 19, 1-isopropyl-3-(3-phenyl-pyrido[2,3-b]pyrazin-6-yl)-thiourea] | 229 to 230 °C |  |  |  |  |
| O=C(NCCc1ccccc1)Nc1ccc2ncc(-c3ccccc3)nc2n1 [Compound 35, 1-Phenethyl-3-(3-phenyl-pyrido[2,3-b]pyrazin-6-yl)-urea] | 250 °C (dec.) |  |  |  |  |
| CCNC(=O)Nc1ccc2nc(-c3ccccn3)c(-c3ccccn3)nc2n1 [Compound 36, 1-(2,3-Di-pyridin-2-yl-pyrido[2,3-b]pyrazin-6-yl)-3-ethyl-urea] | 236 to 237 °C |  |  |  |  |
| O=C(NCCN1CCOCC1)Nc1ccc2ncc(-c3ccccc3)nc2n1 [Compound 17, 1-(2-Morpholin-4-yl-ethyl)-3-(3-phenyl-pyrido[2,3-b]pyrazin-6-yl)-urea] | 226 °C |  |  |  |  |
| CCNC(=O)Nc1ccc2ncc(Nc3ccccc3C)nc2n1 [Compound 160, 1-Ethyl-3-(3-o-tolylamino-pyrido[2,3-b]-pyrazin-6-yl)-urea] |  | > 31.6 | 5.8 | 2.9 | > 31.6 |
| CNC(=S)Nc1ccc2ncc(-c3ccc(N)cc3)nc2n1 [Compound 44, 1-[3-(4-Amino-phenyl)-pyrido[2,3-b]pyrazin-6-yl]-3-methyl-thiourea] |  | 1.5 | 2.5 | 3.8 | > 100 |
| CCNC(=O)Nc1ccc2ncc(-c3ccc(O)cc3)nc2n1 [Compound 43, 1-Ethyl-3-[3-(4-hydroxy-phenyl)-pyrido[2,3-b]pyrazin-6-yl]-urea] |  | 5.5 | 0.006 | 6.2 | > 100 |
| CCNC(=O)Nc1ccc2ncc(Nc3ccc(F)cc3)nc2n1 [Compound 167, 1-Ethyl-3-[3-(4-fluoro-phenylamino)-pyrido[2,3-b]pyrazin-6-yl]-urea] |  | 27.3 | > 100 | 1.1 | > 100 |
| CCNC(=O)Nc1ccc2ncc(Nc3cc(OC)cc(OC)c3)nc2n1 [Compound 180, 1-[3-(3,5-Dimethoxy-phenylamino)-pyrido[2,3-b]pyrazin-6-yl]-3-ethyl-urea] |  | 8.6 | 15.7 | 1.1 | > 100 |
| O=C(NCCCO)Nc1ccc2ncc(-c3ccccc3)nc2n1 [Compound 147, 1-(3-Hydroxy-propyl)-3-(3-phenyl-pyrido[2,3-b]pyrazin-6-yl)-urea] |  | 14.2 | 0.711 | 4.1 | > 100 |
| CCNC(=O)Nc1ccc2ncc(Nc3cc(Cl)c(O)c(Cl)c3)nc2n1 [Compound 185, 1-[3-(3,5-Dichloro-4-hydroxy-phenylamino)-pyrido[2,3-b]pyrazin-6-yl]-3-ethyl-urea] |  | 4.3 | > 31.6 | 0.154 | > 100 |
| CCNC(=O)Nc1ccc2ncc(Nc3ccc(OC)cc3)nc2n1 [Compound 158, 1-Ethyl-3-[3-(4-methoxy-phenylamino)-pyrido[2,3-b]pyrazin-6-yl]-urea] |  | > 31.6 | > 100 | 0.186 | > 100 |
| CCNC(=O)Nc1ccc2ncc(Nc3ccc(Cl)cc3)nc2n1 [Compound 159, 1-[3-(4-Chloroo-phenylamino)-pyrido-[2,3-b]pyrazin-6-yl]-3-ethyl-urea] |  | 12.6 | > 100 | 0.147 | > 100 |
| COc1cc(-c2cnc3ccc(NC(=O)NCCCCO)nc3n2)ccc1O [Compound 168, 1-(4-Hydroxy-butyl)-3-[3-(4-hydroxy-3-methoxy-phenyl)-pyrido[2,3-b]pyrazin-6-yl]-urea] |  | 2.5 | 0.15 | 0.612 | > 100 |
| CCNC(=O)Nc1ccc2ncc(Nc3cnc4ccccc4c3)nc2n1 [Compound 179, 1-Ethyl-3-[3-(chinolin-3-ylamino)-pyrido[2,3-b]pyrazin-6-yl]-urea] |  | 8.1 | 8 | 0.202 | 1.4 |
| CCNC(=S)Nc1ccc2ncc(-c3ccc(O)cc3)nc2n1 [Compound 149, 1-Ethyl-3-[3-(4-hydroxy-phenyl)-pyrido[2,3-b]pyrazin-6-yl]-thiourea] |  | > 31.6 | 0.954 | 3.5 | > 100 |
| CCN(C(C)=O)C(=O)Nc1ccc2ncc(-c3ccccc3)nc2n1 [Compound 46, 1-Acetyl-1-ethyl-3-(3-phenyl-pyrido[2,3-b]pyrazin-6-yl)-urea] |  | > 100 | 9.5 | > 100 | 0.495 |
| CCNC(=O)Nc1ccc2ncc(-c3ccc(O)cc3Cl)nc2n1 [Compound 170, 1-[3-(2-Chloro-4-hydroxy-phenyl)-pyrido[2,3-b]pyrazin-6-yl]-3-ethyl-urea] |  | 1.1 | 0.103 | 2.4 | > 31.6 |
